Patent US6372883B1, “Antiviral medicaments” (Hoffmann-La Roche Inc., priority 1998, dated 2002)

target: HCV proteinase (MBP-NS3″Gly 12-NS4A enzyme); assay: HCV proteinase inhibition: cleavage of quenched fluorescence substrate NS4A/B.F peptide by MBP-NS3″Gly 12-NS4A enzyme; type: biochemical; settings: 10 μM NS4A/B.F peptide, pH 8.5, 10% DMSO, room temperature for 60 minutes; IC50 by manual graph analysis
From the text: As mentioned earlier, the compounds of formula I and salts of acidic compounds of formula I with bases are inhibitors of proteases of viral origin.
Construction of Plasmid for the Expression of MBP-NS3″Gly 12-NS4A Enzyme in E. coli
The nucleotide sequence of this expression plasmid is given in SEQ ID NO:1 appended hereto and the amino acid sequence of its expression product is given in SEQ ID NO:2 appended hereto. It is based on the pMAL®-c2 vector supplied by New England Biolabs, Inc. (32 Tozer Rd., Beverly, Mass., USA). The principle of the construction was to create an in-frame fusion of the maltose binding protein (MBP) gene supplied by the pMAL-c2 vector, and sequences of the HCV genome necessary for NS3 proteinase activity. These HCV sequences were inserted between the EcoRI and HindIII sites of the pMAL-c2 polylinker (positions 2695 and 3556 respectively of the sequence given in SEQ ID NO:1).
HCV sequences were derived from plasmids pDS 3348-4045 and pBFK 3348-6062, described by Bartenschlager et al, 1993 (Journal of Virology, 67, 3835-3844). Regions encompassing the NS3 proteinase domain (amino acids 1007-1219) and the NS4A domain (amino acids 1658-1711) were isolated and inserted into the pMAL-c2 vector using standard recombinant DNA techniques, including the PCR amplification of required sequences. Between the NS3 and NS4A domains, a linker region was constructed using synthetic oligonucleotides (positions 3343-3390; amino acids 606-621). The resulting plasmid was used to transform E. coli (strain MC1061) cells and expression of the MBP-NS3″Gly 12-NS4A enzyme was induced as described below.
Protein Expression and Purification
E. coli (strain MC1061) cells transformed with the foregoing plasmid were grown in Luria broth containing ampicillin (100 μg/ml) at 37° C. The cells were grown until an optical density of 0.5 at 600 nm had been reached and enzyme expression was then induced by adding 1 mM isopropylthiogalactoside and incubating at 37° C. for a further 3 hours. The cells were harvested by centrifugation and stored at −80° C.
A pellet from […] bacterial culture was resuspended in E.coli lysis buffer (20 mM Tris HCl, pH 7.5, containing 150 mM NaCl, 1 mM EDTA and 10 mM dithiothreitol) and cell lysis was achieved by two passages through a French Pressure cell. The clear supernatant obtained by centrifugation (18000 g, 30 minutes) was then applied to an amylose resin column (4×1 cm) (New England Biolabs) which had been equilibrated with ice-cold 50 mM Tris HCl, pH 8.5, containing 200 mM NaCl, 1 mM dithiothreitol and 5% glycerol. The column was washed thoroughly with the equilibration buffer and bound protein was eluted using the equilibration buffer containing 10 mM maltose. Fractions of 1 ml were collected, with fractions containing the enzyme being pooled and stored at −80° C. Enzyme concentration was assayed by the method of M. B. Bradford, Analytical Biochemistry, 1976, vol. 72, p.248.
Compounds of formula I (routinely prepared as stock solutions in DMSO) were assayed for their ability to inhibit the cleavage of a quenched fluorescence substrate [NS4A/B.F peptide (N-[4-[4-(dimethylamino)phenylazo]benzoyl]-L-α-aspartyl-L-(α-glutamyl-L-methionyl-L-α-glutamyl-L-α-glutamyl-L-cysteinyl-L-alanyl-L-seryl-L-histidyl-N5-[2-(5-sulpho-1-naphthylamino)ethyl]-L-glutamin-amide); Wilkinson et al, Society for General Microbiology Meeting, University of Warwick, England, Mar. 28, 1996] based on the NS4A/4B cleavage site by enzyme MBP-NS3{acute over (ii)}Gly 12-NS4A in microtitre plates as follows:
The enzyme (0.4-0.6 μg) was added to a mixture (200 μl final volume) containing 50 mM Tris HCl, pH 8.5, with 1 mM NaCl, 0.1 mM EDTA, 1 mM dithiothreitol, 0.1% Triton X-100, 10 μM NS4A/B.F peptide and the test compound of formula I prepared as a stock solution in DMSO and added to give a 10% final concentration of DMSO. […]

| Compound | IC50 |
| --- | --- |
| 2(RS)-[[N-[N-[N-[N2-(N-Acetyl-L-tyrosyl)-N6-nitro-L-arginyl]-2-methyl-L-phenylalanyl]-3-methyl-L-valyl]-L-leucyl]amino]-4,4,4-trifluorobutyraldehyde | 44 nM |
| 1(RS)-[[N-[N-[N-[N-[N-(4-Acetamidobutyryl)-L-α-aspartyl-L-α-glutamyl]-2-methyl-L-phenylalanyl]-3-methyl-L-valyl]-L-leucyl]-amino]propylboronic acid | 230 nM |
| 2(RS)-[[N-[N-[N-[N-[N-(3-Carboxypropionyl)-L-α-aspartyl-L-α-glutamyl]-2-methyl-L-phenylalanyl]-3-methyl-L-valyl]-O-benzyl-L-tyrosyl]amino]-4,4,4-trifluorobutyraldehyde | 200 nM |
| Cc1ccccc1C[C@H](NC(=O)[C@H](NC(=O)[C@H](CS)NC(=O)CCC(=O)O)C(C)C)C(=O)N[C@H](C(=O)N[C@@H](CC(C)C)C(=O)NC(C=O)CC(F)(F)F)C(C)(C)C (mixture of isomers) [D, 2(RS)-[[N-[N-[N-[N-[N-(3-Carboxypropionyl)-L-cysteinyl]-D-valyl]-2-methyl-L-phenylalanyl]-3-methyl-L-valyl]-L-leucyl]amino]-4,4,4-trifluorobutyraldehyde] | 140 nM |
| 2(RS)-[[N-[N-[N-[N-[N-(3-Carboxypropionyl)-L-α-aspartyl-O-benzyl-L-α-glutamyl]-2-methyl-L-phenylalanyl]-3-methyl-L-valyl]-L-leucyl]amino]-4,4,4-trifluorobutyraldehyde | 110 nM |
| 2(RS)-[[N-[N-[N-[N-[N-(9-Hydroxy-9-fluorenyl)carbonyl]-L-seryl]-O-benzyl-D-seryl]-2-methyl-L-phenylalanyl]-3-methyl-L-valyl]-L-leucyl]-amino]-4,4,4-trifluorobutyraldehyde | 20 nM |
